{
  "source": "patent US20260315436A1",
  "about": "“METHOD OF TREATING DISORDERS WITH SURF1 MALFUNCTION” (Cure Mito Foundation, priority 2023, published 2026)",
  "format_in_all_cases": "cell-based, human",
  "key": {"[1]": {"test_system": "GM28010 SURF1 mutant fibroblasts", "assay": "Seahorse mitochondrial stress test, fibroblast cell line GM28010 (Experiment 1, single compounds)", "conditions": "48 h", "protocol": "In order to evaluate selected compounds' impact on mitochondrial function in patient-derived fibroblasts compared to controls, three seahorse assays were conducted, Exp. 1: Fibroblast cell line GM28010—single compounds; Exp. 2. Fibroblast cell line GM28010—combination of compounds+ Single compounds; and Exp. 3: Fibroblast cell line GM28012—single compounds. Seahorse XF24 Extracellular Flux Analyzers continuously measure oxygen concentration and proton flux in the cell supernatant over time (Wu et al., 2007). The oxygen concentration and proton flux measurements are converted in OCR and ECAR values. This enables a direct quantification of mitochondrial respiration and glycolysis. The aim of the seahorse assays is to evaluate the impact of selected compounds on mitochondrial function in patient-derived fibroblasts compared to controls. Compounds used in the seahorse assays include posacanazole, sertaconazole, glabridin, zinglibroside (ginsenoside Z R1), AM281, cysteamine bitrartate, PF-06447475, losmapimod, telepravir, miltefosine, incyclinide, poziotinib, and methylene blue.\nFibroblast cell line GM28010 is a primary human fibroblast cell line obtained from patients with SURF1 Leigh syndrome. It was purchased from the Coriell Cell Repositories (Camden, NJ, repository number GM28010). Cell line GM00038 was used as a healthy control for GM28010 and is a primary human fibroblast purchased from the Coriell Cell Repositories (Camden, NJ, repository number GM00038).\nFibroblasts were grown in glucose according to recommendation.\nCells were plated in XF96 plates in culture medium and were plated at 10,000 cells/well.\nThe day after plating, cells were treated with the compounds in Table 1. The treatments were completed in glucose medium and galactose medium. The compounds were tested at for 48 hours. The compounds were incubated at (37 C, 5% CO2) until the day of the experiment.\n*Fibroblasts were run at passage numbers: GM28010 SURF1 Fibroblasts P5; GM00038F controls P9.\n• Assay Medium: 10 mM glucose or galactose DMEM supplemented with 2 mM glutamine and 1 mM pyruvate. • Injection Ports for basal glucose: Port A: 2 μM oligomycin; Port B: 2.5 μM FCCP; Port C: 4 μM FCCP; and Port D: 2 μM rotenone and antimycin A.\nData were normalized to cell number per well after the run. The Hoechst-stained nuclei were counted with the Operetta High-Content Imager.\n• Basal Oxygen Consumption (OCR): This reflects the cellular oxygen usage under basal conditions, encompassing both energy production (ATP turnover) and background oxygen leak from the mitochondria. • Oligomycin Injection: Oligomycin is a compound that inhibits ATP synthase, an enzyme crucial for ATP production within mitochondria. • Oligomycin-resistant Respiration: After oligomycin injection, minimal oxygen consumption persists, representing non-ATP linked oxygen leak from the mitochondria, often termed proton leak. • ATP-linked Respiration: This value is derived by subtracting the oligomycin-resistant respiration from the basal OCR. It signifies the oxygen consumption specifically linked to ATP production through mitochondrial oxidative phosphorylation. • Mitochondrial Bioenergetic Efficiency: This parameter reflects the percentage decrease in oxygen consumption observed after oligomycin injection, indicating the mitochondria's efficiency in utilizing oxygen for ATP generation. • FCCP Injection: FCCP is a chemical that disrupts the link between mitochondrial electron transport and ATP production. • Maximal Respiration: Following FCCP injection, the highest oxygen consumption rate is measured, representing the maximum capacity of the mitochondria to utilize oxygen for respiration. • Spare Respiratory Capacity: This parameter is calculated by subtracting basal respiration from maximal respiration."}, "[2]": {"test_system": "GM28012 SURF1 fibroblasts", "assay": "Seahorse mitochondrial stress test, fibroblast cell line GM28012 (Experiment 3, single compounds)", "conditions": "48 h"}, "[3]": {"test_system": "SURF1-mutant midbrain organoids", "assay": "Neuronal staining (TH, MAP2, SMI312) in SURF1-mutant midbrain organoids", "protocol": "(§1) The effect of Sertaconazole in brain organoids carrying mutations in the gene SURF1 was measured.\n(§2) FIG. 29A depicts lactate released in the media by SURF1-mutant midbrain organoids compared to isogenic control organoids. There is an aberrant increase of lactate release by SURF1-mutant organoids. FIG. 29B depicts quantification of lactate in the media of SURF1-mutant midbrain organoids that were treated with either DMSO vehicle or 0.1 μM Sertaconazole for 1 week. […] SURF1-mutant midbrain organoids were treated with either the DMSO vehicle or 0.1 μM Sertaconazole for 1 week. […] FIG. 29D depicts representative images of SURF1-mutant midbrain organoids treated with either the DMSO vehicle or Sertaconazole.\nFIG. 29A depicts lactate released in the media by SURF1-mutant midbrain organoids compared to isogenic control organoids. The amount of lactate was quantified using a commercial kit. […] FIG. 29B depicts quantification of lactate in the media of SURF1-mutant midbrain organoids that were treated with either DMSO vehicle or 0.1 μM Sertaconazole for 1 week Media was collected and analyzed for lactate content using a commercial kit. […] SURF1-mutant midbrain organoids were treated with either the DMSO vehicle or 0.1 μM Sertaconazole for 1 week. The organoids were then fixed and stained with antibodies against Tyrosine Hydroxylase (TH) (a marker of dopaminergic neurons), MAP2 (a marker for neuronal dendrites), and SMI312 (a marker for neuronal axons). Significant values were calculated using the non-parametric Mann-Whitney test. […] Sertaconazole can represent an effective repositionable drug for children affected by Leigh syndrome."}, "[4]": {"test_system": "SURF1-mutant neurons", "assay": "Neurite outgrowth in SURF1-mutant neurons (MAP2 high-content imaging)", "protocol": "The effect of Sertaconazole in human neurons carrying mutations in the gene SURF1 was measured. Hit compounds were filtered and selected to test their effect on neuronal morphogenesis. CRISPR/Cas9 engineered isogenic SURF1 mutant iPSCs on which neural commitment via overexpression of NGN2 was forced were used.\n(§3) FIG. 28A depicts quantification of total neurite area in SURF1-mutant neurons. Each value represents the total neurite area in each well of a 96-well plate. Significant values were calculated using the non-parametric Mann-Whitney test and defective neurite development in SURF1-mutant cells was found FIG. 28B depicts quantification of total neurite area in SURF I-mutant neurons treated with either the DMSO vehicle or Sertaconazole at different concentrations. Neurite area was measured 5 days after induction of NGN2 overexpression, using high-content image analysis of MAP2-positive stained neuronal cells. Each value represents the total neurite area in each well of a 96-well plate.\nHit compounds were filtered and selected to test their effect on neuronal morphogenesis CRISPR/Cas9 engineered isogenic SURF1 mutant iPSCs on which neural commitment via overexpression of NGN2 was forced were used.\nas §3, with “plate. […]” for “plate. Significant values were calculated using the non-parametric Mann-Whitney test and defective neurite development in SURF1-mutant cells was found”, “in SURF1-mutant” for “in SURF I-mutant”, “plate. […] FIG. 28C depicts representative images of SURF1 mutant neurons treated with either the DMSO vehicle or Sertaconazole.” for “plate.”"}, "[5]": {"test_system": "SURF1-mutant midbrain organoids", "assay": "Lactate released in the media by SURF1-mutant midbrain organoids", "conditions": "0.1 μM, 1 week; vs DMSO; Mann-Whitney ****p<0.0001", "protocol": "as §1, §2\nFIG. 29A depicts lactate released in the media by SURF1-mutant midbrain organoids compared to isogenic control organoids. The amount of lactate was quantified using a commercial kit. […] FIG. 29B depicts quantification of lactate in the media of SURF1-mutant midbrain organoids that were treated with either DMSO vehicle or 0.1 μM Sertaconazole for 1 week Media was collected and analyzed for lactate content using a commercial kit. […] SURF1-mutant midbrain organoids were treated with either the DMSO vehicle or 0.1 μM Sertaconazole for 1 week. […] Significant values were calculated using the non-parametric Mann-Whitney test. […]"}, "[6]": {"conditions": "glucose and galactose conditions"}},
  "note": "“Also recorded” adds a separate entry of the source.",
  "data": [
    {"smiles": "Clc1ccc(C(Cn2ccnc2)OCc2csc3c(Cl)cccc23)c(Cl)c1", "note": "(stereo not shown) [Sertaconazole, sertaconazole]", "values": [
      {"measurement": "ATP production", "setting": "[1]", "value": "no effect on ATP production"},
      {"measurement": "maximal OCR", "setting": "[1]; all concentrations", "value": "↓ maximal OCR@ all conc;"},
      {"measurement": "respiration", "setting": "[1]; [6]", "value": "did not result in major changes"},
      {"measurement": "respiration", "setting": "[2]; [6]", "value": "decreased respiration"},
      {"measurement": "ATP production through glycolysis", "setting": "[2]; higher concentrations", "value": "increased ATP production through glycolysis; also recorded: lower concentration; ↑ATP"},
      {"measurement": "amount of TH-positive dopaminergic neurons", "setting": "[3]; 0.1 μM, 1 week, vs DMSO", "value": "increased the amount of TH-positive dopaminergic neurons; also recorded: increase in TH neurons was evident but did not reach statistical significance"},
      {"measurement": "overall neuronal branching organization", "setting": "[3]; 0.1 μM, 1 week, vs DMSO", "value": "rescued the overall neuronal branching organization"},
      {"measurement": "amount of neuronal processes", "setting": "[3]; 0.1 μM, 1 week, vs DMSO, Mann-Whitney *p<0.05", "value": "corrected the increased the amount of neuronal processes"},
      {"measurement": "neuromorphogenesis and lactate defects in SURF1-mutant midbrain organoids", "setting": "[3]; FIG. 29", "value": "ameliorates neuromorphogenesis and lactate defects"},
      {"measurement": "total neurite area (defective neurite development in SURF1-mutant cells)", "setting": "[4]; 5 days after NGN2 induction, vs DMSO, Mann-Whitney **p<0.01", "value": "correction of defective neurite development"},
      {"measurement": "neuromorphogenesis defects in SURF1-mutant neurons", "setting": "[4]; FIG. 28", "value": "ameliorates neuromorphogenesis defects"},
      {"measurement": "rescue of neurite outgrowth capacity", "setting": "[4]; NGN2-induced SURF1 mutant neurons, FIG. 28", "value": "dose-dependent rescue of neurite outgrowth capacity"},
      {"measurement": "amount of lactate released to the media", "setting": "[5]", "value": "reduced the aberrant release of lactate; also recorded: decreases the aberrant amount of lactate"}
    ]}
  ]
}
